The subject of one data set is E. coli (ATCC 25922). It is filed as cell-based, Escherichia coli. The following applies: 3 h at 37°C in phosphate buffer pH 7.2; triplicate. The essentials: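 Bacteria were grown overnight at 37°C in Mueller–Hinton broth and diluted at mid-log phase to 10^6 CFU/ml in pH 7.2 sodium phosphate/NaCl buffer. Peptide dilutions in that buffer were added, then 3 h static incubation at 37°C. Plating on agar overnight gave the minimal bactericidal concentration.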

The nature of data set [1]: In vitro peptide-LPS binding on streptavidin beads (LAL test). Also on record: species or system Pseudomonas aeruginosa. The following applies: biotinylated peptide 0-2.5 µM on streptavidin beads, 5 µg/ml LPS; unbound LPS by LAL test; triplicates. How it is done:
Several kinds of peptide-LPS or peptide-Lipid A binding assays were performed in this study: 1) Streptavidine-conjugated beads (Dynabeads MyOne Streptavidin T1, Invitrogen) were blocked by P. aeruginosa LPS (Sigma) at 37°C for 1.5 hour. After washing with PBST (PBS, pH 7.4 containing 0.1% (w/v) Tween-20), aliquots containing 250 pmol streptavidine-conjugated beads were incubated with a reaction mixture overnight at 4°C. The reaction mixture was prepared by mixing increasing amounts of biotinylated peptide HBc147-183 (0, 0.004, 0.02, 0.1, 0.5 and 2.5 µM) and 5 µg/ml P. aeruginosa LPS (Sigma) or 200 µg/ml E. coli lipid A (Sigma), at 37°C for 3 hour. After incubation overnight at 4°C, the reduction of LPS (or Lipid A) in the supernatants were measured by the Limulus Amebocyte Lysate (LAL) test (Charles River Endosafe) with an ELISA reader (Molecular Devices). The amount (EU/ml) of LPS was calculated according to the standard curve prepared with Endosafe Control Srandard Endotoxin. […] After trypsinization, the trypsin-released LPS in the supernatants were collected and measured by the Limulus Amebocyte Lysate (LAL) test. […] Plate-bound HBc147-183 was measured by streptavidin conjugated with HRP (1∶10000 dilution) for 1 hour at 37°C. […] The absorption was measured at 450 nm with a reference wavelength at 655 nm.

Another data set concerns Vero cells. Kind of data set: CFSE cell proliferation assay. The class given is cell-based, monkey. The following applies: 5, 25 and 100 µM for 1 hour; flow cytometry. How it is done:
To set up CFSE cell proliferation assay, 293 cells (human kidney origin) and Vero cells (monkey kidney origin) were resuspended in PBS to a final concentration of 10^6 cells/ml, before incubation with 10 µM CFSE dye (CellTrace CFSE cell proliferation kit, Invitrogen) at 37°C for 10 min. To quench the staining, ice-old culture media were then added and incubated on ice for 5 min. Labeled cells were then pelleted and washed three times by fresh medium containing 10% FBS before seeding into six well plates at a density of 3.3×10^5cells/well. After 20 h, the medium was removed and incubated with fresh medium containing 5, 25 and 100 µM HBc 147-183 for one hour (FITC-labeled ARD peptide had been largely internalized in 10 minutes after the addition of ARD peptides to the medium of HepG2 cells). Forty-eight hours later, cells were harvested and analyzed by flow cytometry (FACSCanto, BD Bioscience).
Background: A flow cytometer gives signals particle by particle.

Each structure is given as a SMILES string. Residues, ends and D or L forms follow the SMILES beside them.

For `CC(C)[C@H](NC(=O)[C@@H](NC(=O)[C@@H](N)[C@@H](C)O)C(C)C)C(=O)N[C@@H](CCCNC(=N)N)C(=O)N[C@@H](CCCNC(=N)N)C(=O)N[C@@H](CCCNC(=N)N)C(=O)NCC(=O)N[C@@H](CCCNC(=N)N)C(=O)N[C@@H](CO)C(=O)N1CCC[C@H]1C(=O)N[C@@H](CCCNC(=N)N)C(=O)N[C@@H](CCCNC(=N)N)C(=O)N[C@@H](CCCNC(=N)N)C(=O)N[C@H](C(=O)N1CCC[C@H]1C(=O)N[C@@H](CO)C(=O)N1CCC[C@H]1C(=O)N[C@@H](CCCNC(=N)N)C(=O)N[C@@H](CCCNC(=N)N)C(=O)N[C@@H](CCCNC(=N)N)C(=O)N[C@@H](CCCNC(=N)N)C(=O)N[C@@H](CO)C(=O)N[C@@H](CCC(N)=O)C(=O)N[C@@H](CO)C(=O)N1CCC[C@H]1C(=O)N[C@@H](CCCNC(=N)N)C(=O)N[C@@H](CCCNC(=N)N)C(=O)N[C@@H](CCCNC(=N)N)C(=O)N[C@@H](CCCNC(=N)N)C(=O)N[C@@H](CO)C(=O)N[C@@H](CCC(N)=O)C(=O)N[C@@H](CO)C(=O)N[C@@H](CCCNC(=N)N)C(=O)N[C@@H](CCC(=O)O)C(=O)N[C@@H](CO)C(=O)N[C@@H](CCC(N)=O)C(=O)N[C@@H](CS)C(=O)O)[C@@H](C)O` [HBc147-183] (H-TVVRRRGRSPRRRTPSPRRRRSQSPRRRRSQSRESQC-OH; N-terminus and C-terminus assumed), the “Antimicrobial activity, MBC” value in the data set on E. coli (ATCC 25922) was determined as 18.36 µg/mL. The “Binding to LPS” value in data set [1] is “capable of binding to LPS”. Besides, the “Effect on cell proliferation (CFSE intensity, day 3 vs mock)” value in the data set on Vero cells is “no significant effect”.
